Results on 4 compounds are retold here after patent publication US10569270B2, “Screening kit and method” (CELLPLY S.R.L., priority 2016, dated 2020).

In assay [1] the test system is SU-DHL-4 cancer cells. As to the kind of experiment: open well assay of Rituximab on SU-DHL-4 lymphoma cells (Calcein AM / PI, time-lapse). Type of assay: cell-based. To be noted: Rituximab 10 μg/mL, hS 1%, PI 5 μM; images up to 60 min; versus CTRL; FIG. 11A. As to the method: Cells: SU-DHL-4 lymphoma cells and Raji cells were used (ATCC CCL-86). 3·10^5 cells/mL were cultured in RPMI medium supplemented with 10% FBS, 1% […]/streptomycin at 37° C., 95% RH, 5% CO2. The cells were amplified, dividing them when in confluence. PBMC were isolated from blood by centrifugation in gradient. Whole blood from healthy donors was collected into tubes treated with anticoagulants according to the directive “ethical principles and guidelines for the protection of humans in research”. Isolated PBMC were washed twice with 10 mL cold HBSS after lysis of red blood cells. The concentration of cells and their viability was determined with Trypan Blue on haemocytometer. The concentration was adjusted to 1 million cells/mL.
Different batches of SU-DHL-4 or Raji cells were harvested at the peak of their growth, washed with PBS and counted in a hemocytometer with Trypan Blue. The cell concentration was adjusted to 1 million cells/mL and they were labeled with Calcein AM (CAM) 5 nM for flow cytometry and 250 nM for the assay according to the present invention. […] Cell viability was finally assessed by PI and flow cytometry. […]
The images were acquired brightfield (BF) to evaluate the morphological characteristics and then in fluorescence to evaluate the signal in DAPI bands (ex: 360/40 nm, 460/50 nm), FITC (ex: 480/30 nm, em: 535/40 nm), TRITC (ex: 540/25 nm, em: 605/55 nm). […]

Assay [2] concerns Jurkat cells. As to the kind of experiment: calcium signal (Fluo-4) of Jurkat cells in open microwells after stimulation. Type of assay: cell-based, human. To be noted: Fluo-4 labeled Jurkat cells. The procedure: Cells from the Jurkat cell line (human Leukemic T cells) were obtained from ATCC and cultured in RPMI 1640 medium supplemented with 10% inactivated FBS medium, 10 mM Hepes, 2 mM Ultraglutamine and 1 mM sodium pyruvate, 1% Penicillin/Streptomycin in 25 cm^2 flasks at 37° C. and 5% CO2.
For the assay in open microwells according to the present invention, Jurkat cells were labeled with Fluo-4 20 μM in HBSS, centrifuged and resuspended in serum-free medium (RPMI 1640 with 25 mM Hepes or HBSS) at a concentration of 1.6×10^6 cells/mL in 1.5 mL Eppendorf tubes used as input reservoirs for the open reversed microwell system. Subsequent to the deposition of Jurkat cells in the microwells (approximately 1-10 cells per microwell) and washing the channels with HBSS, the solutions containing Ionomycin (2 μg/mL) or OKT3 (10 μg/mL) are made to flow into specific microchannels of the open microwell system via peristaltic pump. The images were acquired by a camera connected to the microscope at a distance of 1 minute and processed by software developed in LabView, quantifying the dynamic performance of the same signal on each sample cell.

Assay [3] concerns leukemic cell lines (KG-1, Kasumi-1 and HL-60). The assay is described as follows: dose/response analysis of leukemic cell lines to idarubicin in the open reversed microwell system. Type of assay: cell-based. To be noted: leukemic cell line (one of KG-1, Kasumi-1, HL-60), FIG. 9C.

The term IC50 denotes the concentration that gives 50% inhibition. Lower therefore signals inhibition by little substance.

Regarding RTX: monoclonal antibody Rituximab, in assay [1], the “dead cells (PI, TRITC channel) in time-lapse images” value was “present only at T2 and T3 in the RTX group”. “OKT3: monoclonal antibody purified from OKT3 hybridoma culture supernatant”: the “increase of the signal peak compared to the baseline value” in assay [2] (OKT3 10 μg/mL, average of a series of 3 experiments) is 178%+/−90%. `C[C@H](CCC(=O)O)C[C@H](C)C[C@H](C)C(=O)/C=C(\O)[C@H](C)C[C@H](C)C/C=C/[C@@H](C)[C@@H](O)[C@@H](C)[C@@H](O)C[C@@H]1CC[C@@](C)([C@H]2CC[C@@](C)([C@@H](C)O)O2)O1` [Ionomycin]: the “average increase of the signal with respect to the baseline” value in assay [2] (Ionomycin 2 μg/mL, series of 10 experiments) was found to be 193%+/−139%. As for `CC(=O)[C@]1(O)Cc2c(O)c3c(c(O)c2[C@@H](O[C@H]2C[C@H](N)[C@H](O)[C@H](C)O2)C1)C(=O)c1ccccc1C3=O` [idarubicin], the half-maximal inhibitory concentration (IC50) stood at 213 nM in assay [3] (response level: resistant), 21.8 nM in assay [3] (response level: sensitive on the average) and 4.9 nM in assay [3] (response level: sensitive).
